One data set concerns Female Wistar rats. Description: Reserpine Tremor Test. To be noted: route sc, dose 2.5 mg/kg, 90 min before testing; reserpine 2 mg/kg iv 60 min before testing; 15-min session; number of rats out of rats tested. The format is in vivo, rat. How it is done: Female Wistar rats weighing 200-220 g were used. These test animals were food deprived for 24 hours. Said rats were pretreated orally (po) or subcutaneously (sc) with a test compound at 90 minutes before testing. This pretreatment was followed by an intravenous injection of 2 mg/kg reserpine at 60 minutes before testing. Two control groups of 20 rats each were included in the experiment. The first control group consisted of rats that were only treated with a saline solution and the second control group consisted of animals which only received a saline reserpine solution. At the start of the test, the rats were individually placed in specially designed test cages and tremor activity was measured continuously during a 15-min test session. These test cages consisted of a plexiglass chamber. The floor of the test cage consisted of a plexiglass plate which was centered underneath the cage. […] The floor plate rested at its four corners on a rubber point of support. Two pieces of piezo-film were tied up next to each other underneath the middle of the floor plate. Said piezo-films were connected to an amplifier. The test cage was situated in a sound and light attenuating out box, being constantly illuminated and air-ventilated. The piezo-electric response, produced by deformation of the cage floor was amplified by an individual amplifier for each piezo-film separately. […]

Molecules are shown by their SMILES.

Results on one compound are retold here after patent US6348457B1, “4-[3-benzofuranyl]piperidinyl and 4-[3-benzothienyl]piperidinyl derivatives” (Janssen Pharmaceutica N.V., priority 1922, dated 2002).

For orientation: melting point means the temperature, or range, at which the solid turns liquid.

Turning to `Cc1nc2ccccn2c(=O)c1CCN1CCC(c2coc3cc(F)ccc23)CC1` [Co. No. 1, 3-[2-[4-(6-fluoro-3-benzofuranyl)-1-piperidinyl]ethyl]-2-methyl-4H-pyrido-[1,2-a]pyrimidin-4-one], the melting point is 159.8 °C. Further, the “rats showing a tremor activity below 35 counts” value with Female Wistar rats amounted to 3.
